Assay results taken from PubChem BioAssay (NCI).
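Following 48 hours of exposure in 96-well plates, responses at five concentrations were used to interpolate endpoints linearly. GI50: concentration for 50% inhibition of growth. TGI: total growth inhibition.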

Tests used:
Assay in all cases: growth of human tumour cells (NCI), 48 h
UO-31 renal = test system: UO-31 renal
SK-MEL-2 melanoma = test system: SK-MEL-2 melanoma
SN12C renal = test system: SN12C renal
HCT-15 colon = test system: HCT-15 colon
SW-620 colon = test system: SW-620 colon
TK-10 renal = test system: TK-10 renal
MDA-MB-231 breast = test system: MDA-MB-231 breast
DU-145 prostate = test system: DU-145 prostate
PC-3 prostate = test system: PC-3 prostate
CAKI-1 renal = test system: CAKI-1 renal

SMILES | TGI (UO-31 renal) | TGI (SK-MEL-2 melanoma) | TGI (SN12C renal) | TGI (HCT-15 colon) | TGI (SW-620 colon) | TGI (TK-10 renal) | TGI (MDA-MB-231 breast) | TGI (DU-145 prostate) | TGI (PC-3 prostate) | GI50 (UO-31 renal) | GI50 (SK-MEL-2 melanoma) | GI50 (SN12C renal) | GI50 (MDA-MB-231 breast) | GI50 (HCT-15 colon) | GI50 (SW-620 colon) | GI50 (PC-3 prostate) | GI50 (TK-10 renal) | TGI (CAKI-1 renal) | GI50 (DU-145 prostate) | GI50 (CAKI-1 renal)
CCCCc1c2c(nc3c1CCC/C3=C\c1ccccc1)C(=O)CCC2 | 61.8 µM | 33.9 µM | 47.4 µM | 51.9 µM | 45 µM | 72.4 µM | – | – | – | – | – | – | – | – | – | – | – | – | – | –
CC(=O)Nc1ccc(C(=O)NN2C(=O)C(Cl)C2c2ccc(Cl)cc2)cc1 (configuration not stated) | > 100 µM | > 100 µM | > 100 µM | > 100 µM | > 100 µM | > 100 µM | 70.3 µM | > 100 µM | > 100 µM | – | – | – | – | – | – | – | – | – | – | –
Nc1c(C(=O)c2ccc(Cl)cc2)sc(Nc2ccccc2)c1-c1nc2ccccc2s1 | > 100 µM | 21 µM | > 100 µM | > 100 µM | > 100 µM | > 21.4 µM | > 100 µM | – | > 100 µM | 2.16 µM | 3.89 µM | > 20.2 µM | 2.35 µM | 2.44 µM | 1.2 µM | 2.35 µM | 2.13 µM | – | – | –
CCNC(=O)CCN(C(=O)O)S(=O)(=O)c1ccc(NC(=O)c2ccccc2)cc1 | > 100 µM | > 100 µM | > 100 µM | > 100 µM | 32 µM | > 100 µM | – | – | – | – | – | – | – | – | – | – | – | > 100 µM | – | –
CCOC(=O)C(Cc1c[nH]c2ccc(N)cc12)(NC(C)=O)C(=O)OCC | > 1000 µM | – | > 1000 µM | > 1000 µM | > 1000 µM | > 1000 µM | > 1000 µM | > 1000 µM | > 1000 µM | > 1000 µM | – | > 1000 µM | > 1000 µM | > 1000 µM | > 1000 µM | > 1000 µM | > 1000 µM | – | > 1000 µM | –
CCCCOC(=O)NC(=O)c1cn(CCCOC(=O)CCCCCCCCC(=O)OCCCn2cc(C(=O)NC(=O)OCCCC)c(=O)[nH]c2=O)c(=O)[nH]c1=O | > 100 µM | > 100 µM | > 100 µM | > 100 µM | > 100 µM | > 100 µM | – | – | – | – | – | – | – | – | – | – | – | – | – | –
CCOC(=O)C(N)C[S][Sn]([CH3])([CH3])[Cl] (configuration not stated) | > 100 µM | > 100 µM | > 100 µM | > 100 µM | > 100 µM | > 100 µM | – | – | – | > 100 µM | > 100 µM | > 100 µM | – | > 79.1 µM | > 100 µM | – | > 100 µM | > 100 µM | – | > 100 µM
COc1ccc([N+](=O)[O-])c2c(NCCCN(C)C)c3ccccc3nc12 | 1.15 µM | 0.281 µM | 1.43 µM | 1.39 µM | – | 2.43 µM | 2.31 µM | 1.79 µM | 0.372 µM | – | – | – | – | – | – | – | – | 5.7 µM | – | –
COC(=O)C1C(C(=O)OC)C2(OC)c3ccccc3-c3ccccc3C12 (configuration not stated) | > 100 µM | 54.5 µM | > 100 µM | > 100 µM | > 100 µM | > 100 µM | – | – | – | – | – | – | – | – | – | – | – | > 100 µM | – | –
O=C1OC(CC(=O)c2ccc(Cl)c(Cl)c2)C(Cl)=C1Cl (configuration not stated) | > 100 µM | > 100 µM | > 100 µM | > 100 µM | > 100 µM | > 100 µM | – | – | – | – | – | – | – | – | – | – | – | > 100 µM | – | –
